Laboratory results as given in patent US9603793B2, “Nano / micro bubbles for drug delivery” (National Tsing Hua University, priority 2014, dated 2017).

How the values were obtained:
[1] = Pharmacokinetic test of nano/micro bubbles (plasma insulin and blood glucose); format: in vivo; settings: subcutaneous injection of insulin 5 IU/kg; 0 to 10 hours; FIG. 5b
Experimental: Pharmacokinetic Test of Nano/Micro Bubbles In the present example, groups comprising nano/micro bubbles of the present invention (containing 30 IU/kg of insulin), oral administration (30 IU/kg of insulin) and subcutaneous injection of insulin (5 IU/kg) are compared. The change rates in plasma insulin and blood glucose concentration from 0 to 10 hours after subjects taking insulin or injected with insulin were recorded respectively, and the results are illustrated in FIGS. 5a and 5b.

cells = experiment: Cell images of cells co-cultured with the components (FITC-insulin transmission); format: cell-based; settings: cells co-cultured with the component; stained with Cld 4, E-cadherin and DAPI; FIG. 3

Row | Molecule | change rate of the blood glucose [1] | transmission of FITC-insulin (paracellular / transcellular pathway) (cells)
1 | insulin | rapidly declined and rose again | 
2 | CCCCCCCCCCCCOS(=O)(=O)[O-].[Na+] [SDS, sodium dodecyl sulfate] |  | can promote transmission of FITC-insulin via both of paracellular pathway and transcellular pathway
3 | O=C(O)CN(CCN1CC(=O)OC(=O)C1)CCN1CC(=O)OC(=O)C1 [DTPA dianhydride, diethylenetriaminepentaacetic dianhydride] |  | can promote transmission of FITC-insulin via paracellular pathway
